Test results: patent US9302999B2, “Substituted triazoles as herbicides” (E. I. DU PONT DE NEMOURS AND COMPANY, priority 2012, dated 2016)

Assays:
Format in all cases: in vivo
[1] = test system: velvetleaf (Abutilon theophrasti); test: Test A pre-/postemergence: velvetleaf; details: for Velvetleaf plant response rating: Postemergence; for Plant response rating, Velvetleaf: Preemergence
Procedure, shortened: (§1)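 Injury is scored visually on a scale where 0 means no effect and 100 complete control, comparing treated with untreated plants after approximately ten greenhouse days. Both preemergence and postemergence applications are made at the same time.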

[2] = test system: sedge, umbrella (small-flower umbrella sedge, Cyperus difformis); test: Test C flooded paddy test: sedge, umbrella; details: scale 0 to 100 (0 no effect, 100 complete control)
Procedure, shortened: (§2)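 Plants at 2-leaf stage in pots flooded 3 cm above soil; compounds applied directly into the paddy water, depth maintained. Visual rating against controls after 13–15 days in greenhouse, scale 0 (no effect) to 100 (complete control).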

[3] = test system: ducksalad (Heteranthera limosa); test: Test C flooded paddy test: ducksalad; details: scale 0 to 100 (0 no effect, 100 complete control)
Procedure, shortened: as §2

[4] = test system: foxtail, giant (giant foxtail, Setaria faberii); test: Test A pre-/postemergence: foxtail, giant; details: for Foxtail, Giant plant response rating: Postemergence; for Plant response rating, Foxtail, Giant: Preemergence
Procedure, shortened: as §1

[5] = test system: pigweed (Amaranthus retroflexus); test: Test A pre-/postemergence: pigweed; details: for Pigweed plant response rating: Postemergence; for Plant response rating, Pigweed: Preemergence
Procedure, shortened: as §1

[6] = test system: barnyardgrass (Echinochloa crus-galli); test: Test C flooded paddy test: barnyardgrass; details: scale 0 to 100 (0 no effect, 100 complete control)
Procedure, shortened: as §2

[7] = test system: wheat (Triticum aestivum); test: Test A pre-/postemergence: wheat; details: for Wheat plant response rating: Postemergence; for Plant response rating, Wheat: Preemergence
Procedure, shortened: as §1

[8] = test system: rice (Oryza sativa); test: Test C flooded paddy test: rice; details: scale 0 to 100 (0 no effect, 100 complete control)
Procedure, shortened: as §2

[9] = test system: corn (Zea mays); test: Test A pre-/postemergence: corn; details: for Corn plant response rating: Postemergence; for Plant response rating, Corn: Preemergence
Procedure, shortened: as §1

[10] = test system: morningglory (Ipomoea spp.); test: Test A pre-/postemergence: morningglory; details: for Morningglory plant response rating: Postemergence; for Plant response rating, Morningglory: Preemergence
Procedure, shortened: as §1

[11] = test system: crabgrass, large (large crabgrass, Digitaria sanguinalis); test: Test A pre-/postemergence: crabgrass, large; details: for Crabgrass, Large plant response rating: Postemergence; for Plant response rating, Crabgrass, Large: Preemergence
Procedure, shortened: as §1

[12] = test system: barnyardgrass (Echinochloa crus-galli); test: Test A pre-/postemergence: barnyardgrass; details: for Barnyardgrass plant response rating: Postemergence; for Plant response rating, Barnyardgrass: Preemergence
Procedure, shortened: as §1

[13] = 125 g ai/ha, 0 to 100 scale, 0 is no effect, 100 is complete control
[14] = 500 g ai/ha, visual rating on 0 to 100 scale (0 no effect, 100 complete control), approximately ten days
[15] = 125 g ai/ha, 0 to 100 scale (0 no effect, 100 complete control)
[16] = 500 g ai/ha, 0 to 100 scale, 0 is no effect, 100 is complete control
[17] = Flood (flooded paddy test), 62 g ai/ha, visual rating after 13 to 15 days
[18] = Flood (flooded paddy test), 125 g ai/ha, visual rating after 13 to 15 days
[19] = Flood (flooded paddy test), 250 g ai/ha, visual rating after 13 to 15 days

COc1nn(-c2ccc(C(F)(F)F)cc2)nc1Cn1nc(C(F)(F)F)cc1C(F)(F)F [Compound 30]
Velvetleaf plant response rating [1, 13]: 0
Velvetleaf plant response rating [1, 14]: 0
Plant response rating, Velvetleaf [1, 15]: 0
Plant response rating, Velvetleaf [1, 16]: 0
Plant response rating, Sedge, Umbrella [2, 17]: 0
Plant response rating, Sedge, Umbrella [2, 18]: 20
Plant response rating, Sedge, Umbrella [2, 19]: 30
Plant response rating, Sedge, Umbrella ([2]; Flood, 31 g ai/ha): 0
Plant response rating, Ducksalad [3, 17]: 0
Plant response rating, Ducksalad [3, 18]: 0
Plant response rating, Ducksalad [3, 19]: 0
Plant response rating, Ducksalad ([3]; Flood, 31 g ai/ha): 0
Foxtail, Giant plant response rating [4, 13]: 0
Foxtail, Giant plant response rating [4, 14]: 0
Plant response rating, Foxtail, Giant [4, 15]: 0
Plant response rating, Foxtail, Giant [4, 16]: 0
Pigweed plant response rating [5, 13]: 0
Pigweed plant response rating [5, 14]: 0
Plant response rating, Pigweed [5, 15]: 0
Plant response rating, Pigweed [5, 16]: 0
Plant response rating, Barnyardgrass [6, 17]: 0
Plant response rating, Barnyardgrass [6, 18]: 0
Plant response rating, Barnyardgrass [6, 19]: 0
Plant response rating, Barnyardgrass ([6]; Flood, 31 g ai/ha): 0
Wheat plant response rating [7, 13]: 0
Wheat plant response rating [7, 14]: 0
Plant response rating, Wheat [7, 15]: 0
Plant response rating, Wheat [7, 16]: 0
Plant response rating, Rice [8, 17]: 0
Plant response rating, Rice [8, 18]: 0
Plant response rating, Rice [8, 19]: 0
Plant response rating, Rice ([8]; Flood, 31 g ai/ha): 0
Corn plant response rating [9, 13]: 0
Corn plant response rating [9, 14]: 0
Plant response rating, Corn [9, 15]: 0
Plant response rating, Corn [9, 16]: 0
Morningglory plant response rating [10, 13]: 0
Morningglory plant response rating [10, 14]: 0
Plant response rating, Morningglory [10, 15]: 0
Plant response rating, Morningglory [10, 16]: 0
Crabgrass, Large plant response rating [11, 13]: 0
Crabgrass, Large plant response rating [11, 14]: 0
Plant response rating, Crabgrass, Large [11, 15]: 0
Plant response rating, Crabgrass, Large [11, 16]: 0
Barnyardgrass plant response rating [12, 13]: 0
Barnyardgrass plant response rating [12, 14]: 0
Plant response rating, Barnyardgrass [12, 15]: 0
Plant response rating, Barnyardgrass [12, 16]: 0

COc1cc(Cc2nn(-c3ccc(C(F)(F)F)cc3)nc2C)ccn1 [Compound 31]
Velvetleaf plant response rating [1, 13]: 10
Velvetleaf plant response rating [1, 14]: 20
Plant response rating, Velvetleaf [1, 15]: 0
Plant response rating, Velvetleaf [1, 16]: 0
Plant response rating, Sedge, Umbrella [2, 17]: 0
Plant response rating, Sedge, Umbrella [2, 18]: 0
Plant response rating, Sedge, Umbrella [2, 19]: 0
Plant response rating, Sedge, Umbrella ([2]; Flood, 31 g ai/ha): 0
Plant response rating, Ducksalad [3, 17]: 0
Plant response rating, Ducksalad [3, 18]: 0
Plant response rating, Ducksalad [3, 19]: 0
Plant response rating, Ducksalad ([3]; Flood, 31 g ai/ha): 0
Foxtail, Giant plant response rating [4, 13]: 10
Foxtail, Giant plant response rating [4, 14]: 50
Plant response rating, Foxtail, Giant [4, 15]: 30
Plant response rating, Foxtail, Giant [4, 16]: 90
Pigweed plant response rating [5, 13]: 60
Pigweed plant response rating [5, 14]: 90
Plant response rating, Pigweed [5, 15]: 0
Plant response rating, Pigweed [5, 16]: 50
Plant response rating, Barnyardgrass [6, 17]: 0
Plant response rating, Barnyardgrass [6, 18]: 0
Plant response rating, Barnyardgrass [6, 19]: 0
Plant response rating, Barnyardgrass ([6]; Flood, 31 g ai/ha): 0
Wheat plant response rating [7, 13]: 0
Wheat plant response rating [7, 14]: 10
Plant response rating, Wheat [7, 15]: 0
Plant response rating, Wheat [7, 16]: 0
Plant response rating, Rice [8, 17]: 0
Plant response rating, Rice [8, 18]: 0
Plant response rating, Rice [8, 19]: 0
Plant response rating, Rice ([8]; Flood, 31 g ai/ha): 0
Corn plant response rating [9, 13]: 10
Corn plant response rating [9, 14]: 20
Plant response rating, Corn [9, 15]: 0
Plant response rating, Corn [9, 16]: 0
Morningglory plant response rating [10, 13]: 20
Morningglory plant response rating [10, 14]: 100
Plant response rating, Morningglory [10, 15]: 0
Plant response rating, Morningglory [10, 16]: 0
Crabgrass, Large plant response rating [11, 13]: 10
Crabgrass, Large plant response rating [11, 14]: 50
Plant response rating, Crabgrass, Large [11, 15]: 0
Plant response rating, Crabgrass, Large [11, 16]: 60
Barnyardgrass plant response rating [12, 13]: 10
Barnyardgrass plant response rating [12, 14]: 10
Plant response rating, Barnyardgrass [12, 15]: 0
Plant response rating, Barnyardgrass [12, 16]: 0

Cc1nn(-c2ccc(C(F)(F)F)cc2)nc1Cn1cc(C(F)(F)F)cn1 [Compound 32]
Velvetleaf plant response rating [1, 13]: 20
Velvetleaf plant response rating [1, 14]: 20
Plant response rating, Velvetleaf [1, 15]: 0
Plant response rating, Velvetleaf [1, 16]: 0
Plant response rating, Sedge, Umbrella [2, 17]: 0
Plant response rating, Sedge, Umbrella [2, 18]: 0
Plant response rating, Sedge, Umbrella [2, 19]: 0
Plant response rating, Sedge, Umbrella ([2]; Flood, 31 g ai/ha): 0
Plant response rating, Ducksalad [3, 17]: 0
Plant response rating, Ducksalad [3, 18]: 0
Plant response rating, Ducksalad [3, 19]: 0
Plant response rating, Ducksalad ([3]; Flood, 31 g ai/ha): 0
Foxtail, Giant plant response rating [4, 13]: 10
Foxtail, Giant plant response rating [4, 14]: 20
Plant response rating, Foxtail, Giant [4, 15]: 10
Plant response rating, Foxtail, Giant [4, 16]: 80
Pigweed plant response rating [5, 13]: 60
Pigweed plant response rating [5, 14]: 100
Plant response rating, Pigweed [5, 15]: 0
Plant response rating, Pigweed [5, 16]: 70
Plant response rating, Barnyardgrass [6, 17]: 0
Plant response rating, Barnyardgrass [6, 18]: 0
Plant response rating, Barnyardgrass [6, 19]: 0
Plant response rating, Barnyardgrass ([6]; Flood, 31 g ai/ha): 0
Wheat plant response rating [7, 13]: 0
Wheat plant response rating [7, 14]: 0
Plant response rating, Wheat [7, 15]: 0
Plant response rating, Wheat [7, 16]: 0
Plant response rating, Rice [8, 17]: 0
Plant response rating, Rice [8, 18]: 0
Plant response rating, Rice [8, 19]: 0
Plant response rating, Rice ([8]; Flood, 31 g ai/ha): 0
Corn plant response rating [9, 13]: 0
Corn plant response rating [9, 14]: 10
Plant response rating, Corn [9, 15]: 0
Plant response rating, Corn [9, 16]: 0
Morningglory plant response rating [10, 13]: 10
Morningglory plant response rating [10, 14]: 50
Plant response rating, Morningglory [10, 15]: 0
Plant response rating, Morningglory [10, 16]: 0
Crabgrass, Large plant response rating [11, 13]: 20
Crabgrass, Large plant response rating [11, 14]: 30
Plant response rating, Crabgrass, Large [11, 15]: 10
Plant response rating, Crabgrass, Large [11, 16]: 30
Barnyardgrass plant response rating [12, 13]: 10
Barnyardgrass plant response rating [12, 14]: 10
Plant response rating, Barnyardgrass [12, 15]: 0
Plant response rating, Barnyardgrass [12, 16]: 0

Cc1nn(-c2ccc(F)cc2)nc1Cn1cc(C(F)(F)F)nc1Cl [Compound 35]
Velvetleaf plant response rating [1, 13]: 70
Velvetleaf plant response rating [1, 14]: 100
Plant response rating, Velvetleaf [1, 15]: 30
Plant response rating, Velvetleaf [1, 16]: 50
Plant response rating, Sedge, Umbrella [2, 17]: 75
Plant response rating, Sedge, Umbrella [2, 18]: 80
Plant response rating, Sedge, Umbrella [2, 19]: 80
Plant response rating, Sedge, Umbrella ([2]; Flood, 31 g ai/ha): 75
Plant response rating, Ducksalad [3, 17]: 65
Plant response rating, Ducksalad [3, 18]: 70
Plant response rating, Ducksalad [3, 19]: 75
Plant response rating, Ducksalad ([3]; Flood, 31 g ai/ha): 40
Foxtail, Giant plant response rating [4, 13]: 60
Foxtail, Giant plant response rating [4, 14]: 90
Plant response rating, Foxtail, Giant [4, 15]: 80
Plant response rating, Foxtail, Giant [4, 16]: 100
Pigweed plant response rating [5, 13]: 100
Pigweed plant response rating [5, 14]: 100
Plant response rating, Pigweed [5, 15]: 90
Plant response rating, Pigweed [5, 16]: 100
Plant response rating, Barnyardgrass [6, 17]: 0
Plant response rating, Barnyardgrass [6, 18]: 0
Plant response rating, Barnyardgrass [6, 19]: 30
Plant response rating, Barnyardgrass ([6]; Flood, 31 g ai/ha): 0
Wheat plant response rating [7, 13]: 10
Wheat plant response rating [7, 14]: 60
Plant response rating, Wheat [7, 15]: 0
Plant response rating, Wheat [7, 16]: 0
Plant response rating, Rice [8, 17]: 0
Plant response rating, Rice [8, 18]: 0
Plant response rating, Rice [8, 19]: 0
Plant response rating, Rice ([8]; Flood, 31 g ai/ha): 0
Corn plant response rating [9, 13]: 20
Corn plant response rating [9, 14]: 50
Plant response rating, Corn [9, 15]: 10
Plant response rating, Corn [9, 16]: 30
Morningglory plant response rating [10, 13]: 90
Morningglory plant response rating [10, 14]: 100
Plant response rating, Morningglory [10, 15]: 20
Plant response rating, Morningglory [10, 16]: 50
Crabgrass, Large plant response rating [11, 13]: 80
Crabgrass, Large plant response rating [11, 14]: 90
Plant response rating, Crabgrass, Large [11, 15]: 90
Plant response rating, Crabgrass, Large [11, 16]: 100
Barnyardgrass plant response rating [12, 13]: 40
Barnyardgrass plant response rating [12, 14]: 90
Plant response rating, Barnyardgrass [12, 15]: 60
Plant response rating, Barnyardgrass [12, 16]: 90
